In patent publication US20110207751A1, “HETEROCYCLIC COMPOUNDS AND USES AS ANTICANCER AGENTS” (priority 2010, published 2011):
Where a name gives a salt, the structure may show the parent alone. Each block holds one compound with its values, some of them ahead of it.

Legend:
[1] = Body weight and animal number of carrier mice, MKN45 xenograft test; format: in vivo, BALB/c immunodeficient nude mice; conditions: for Animal No. end: 7 at beginning
Method: (§1) To evaluate the in vivo anticancer efficacy of COMPOUND O, MKN45 human gastric-intestinal cancer xenograft models in immunodeficient nude mice was tested. All the mouse models are maintained in the Pharmacology Lab of ACEA Bio (Hangzhou) CO., Ltd. The BALB/c immunodeficient nude mice were purchased from Shanghai SLAC Laboratory Animal, certification number: SCXKA (Shanghai) 2007-0005. The mouse weight was 19±1 g. Only female mice were used in this study. The numbers of animals tested were as follow: 7 for each dose group, 7 for positive control group and 7 for negative control group.
(§2) Test Control. For negative control, each mouse was administered orally with the solvent only having the same volume and same concentration as those used in COMPOUND O test, 120 mg/kg once every other day (qod) for 18 days. […]
(§3) Preparation an Administration of Test Compounds. COMPOUND O was dissolved in 25% phospholipid (S75) and 75% polyvinylpyrrolidone (PL-PVP) then further diluted to 8 mg/ml in 0.9% NaCl aqueous solution. Different dosages of COMPOUND O between 120 mg/kg qod (once every other day) and 160 mg/kg q3d (once every 3 days) were used in the study.
(§4) All used materials including animal food, animal cage, supporting materials and apparatus contacted by animals, were high-pressure sterilized. Nude mice were maintained in laminar flow shelves under SPF condition. After tumor transplantation, mouse weight and tumor size in each compound dosage group were dynamically monitored and plotted. The tumor size was determined by measuring the major axis (a) and minor axis (b) of the tumor, and tumor volume was calculated according to the formula: […]

[2] = tested on: MKN45 human gastric-intestinal cancer xenograft; assay: In vivo antitumor efficacy, MKN45 xenograft; parameters: species or system BALB/c immunodeficient nude mice; conditions: for Tumor inhibition rate %: by tumor weight
Method: as §1, §2, §3
Preparation of tumor cells for transplantation and determination of compound efficacy. To prepare the tumor cells for MKN45 human gastric-intestinal cancer xenograft model, the fast grown tumors were first removed from the transplanted tumor mice, the tumor tissues were dissected to 1-2 mm^3 in dimension. These micro-tumors were then subcutaneously injected into the auxiliary region (right-side) of each mouse. After the inoculated tumors grew to a certain size (60-80 mm^3) in the nude mice, the mice were randomized into different dosing groups and subjected to compound treatment. Between 2-3 weeks after the first dosing, mice were sacrificed and the transplanted tumors were removed from experimental mice. Each removed solid tumor was weighed; the tumor inhibition rate in each dosage group was calculated according to the formula:
Tumor inhibition rate %=(average weight of tumor in the negative control group−average weight of tumor in the compound treated group)/average weight of tumor in the negative control group×100 (1)
as §4

[3] = tested on: H2347 cells (human non-small cell lung cancer cell line); assay: Inhibition of cell proliferation, xCelligence cell index; format: cell-based; conditions: NCI-H2347, 72 hr post compound treatment, read-out: calculated IC50
From the text: The biological activity of compounds disclosed herein was monitored and profiled using the Real-Time Cell Electronic Sensing (RT-CES®) system from ACEA Biosciences, Inc. The RT-CES system utilizes cell-substrate impedance technology to monitor cellular behavior inside tissue culture wells in a microtiter plate format. The technology features in the integration of molecular and cell biology with microelectronics and is based on the electronic detection of biological assay process. […]
For measurement of cell-substrate or cell-electrode impedance using RT-CES technology, microelectrodes having appropriate geometries are fabricated onto the bottom surfaces of microtiter plate or similar device, facing into the wells. […] When there are changes to the biological status of the cells analogue electronic readout signals are measured automatically and in real time, and are converted to digital signals for processing and for analysis. In a RT-CES system, a cell index (arbitrary representation of change in impedance) is automatically derived and provided based on measured electrode impedance values. […]
To quantify cell status based on the measured cell-electrode impedance, a parameter termed Cell Index is derived. Cell Index is a quantitative measure of the status of the cells in an electrode-containing well. […]

Structure (SMILES): COc1cc([C@@H]2c3cc4c(cc3[C@@H](O[C@@H]3O[C@@H]5CO[C@@H](C)O[C@H]5[C@H](O)[C@H]3O)[C@H]3COC(=O)[C@H]23)OCO4)cc(OC)c1O [Etoposide, reference compound]
Animal weight (g) Beginning ([1]; 50 mg/kg ig × 6 q3d): 18.9 g
Animal weight (g) end ([1]; 50 mg/kg ig × 6 q3d): 16.9 g
Body weight of mice (g) 1 day ([1]; 50 mg/kg ig × 6 q3d): 18.94 ± 0.92 g
Body weight of mice (g) 4 day ([1]; 50 mg/kg ig × 6 q3d): 19.57 ± 1.16 g
Body weight of mice (g) 8 day ([1]; 50 mg/kg ig × 6 q3d): 17.17 ± 0.85 g
Body weight of mice (g) 11 day ([1]; 50 mg/kg ig × 6 q3d): 17.26 ± 1.24 g
Body weight of mice (g) 16 day ([1]; 50 mg/kg ig × 6 q3d): 16.94 ± 0.91 g
Body weight of mice (g) 18 day ([1]; 50 mg/kg ig × 6 q3d): 16.93 ± 0.75 g
Animal No. end ([1]; 50 mg/kg ig × 6 q3d): 7/7
TV inhibition rate % T/C ([2]; 50 mg/kg ig × 6 q3d): 56.9%
Tumor volume (mm^3) End ([2]; 50 mg/kg ig × 6 q3d): 1164 ± 483 mm^3
Tumor volume (mm^3) Start ([2]; 50 mg/kg ig × 6 q3d): 69.46 ± 16 mm^3
Tumor weight (g) x ± SD ([2]; 50 mg/kg ig × 6 q3d): 1.024 ± 0.345 g
Tumor inhibition rate % ([2]; 50 mg/kg ig × 6 q3d): 48.4%

IC50 [3]: 5.05 nM
Structure (SMILES): CC[C@]1(O)C[C@H]2CN(CCc3c([nH]c4ccccc34)[C@@](C(=O)OC)(c3cc4c(cc3OC)N(C=O)[C@H]3[C@@](O)(C(=O)OC)[C@H](OC(C)=O)[C@]5(CC)C=CCN6CC[C@]43[C@@H]65)C2)C1 [vincristine]

IC50 [3]: 1.76 nM
Structure (SMILES): CCc1ccc(Nc2nc(-c3c(C)nc4sccn34)cs2)cc1 [COMPOUND O, 2-(4-ethylphenyl)amino-4-(6-methylimidazo[2,1-b]thiazol-5-yl)-thiazole monohydrobromide]
Animal weight (g) Beginning ([1]; 120 mg/kg ig × 9 qod): 19 g
Animal weight (g) end ([1]; 120 mg/kg ig × 9 qod): 16.7 g
Body weight of mice (g) 1 day ([1]; 120 mg/kg ig × 9 qod): 19.03 ± 0.76 g
Body weight of mice (g) 4 day ([1]; 120 mg/kg ig × 9 qod): 19.53 ± 0.71 g
Body weight of mice (g) 8 day ([1]; 120 mg/kg ig × 9 qod): 18.24 ± 1.10 g
Body weight of mice (g) 11 day ([1]; 120 mg/kg ig × 9 qod): 18.21 ± 1.02 g
Body weight of mice (g) 16 day ([1]; 120 mg/kg ig × 9 qod): 17.09 ± 1.09 g
Body weight of mice (g) 18 day ([1]; 120 mg/kg ig × 9 qod): 16.71 ± 0.97 g
Animal No. end ([1]; 120 mg/kg ig × 9 qod): 7/7
Animal weight (g) Beginning ([1]; 160 mg/kg ig × 6 q3d): 18.3 g
Animal weight (g) end ([1]; 160 mg/kg ig × 6 q3d): 15.7 g
Body weight of mice (g) 1 day ([1]; 160 mg/kg ig × 6 q3d): 18.37 ± 0.66 g
Body weight of mice (g) 4 day ([1]; 160 mg/kg ig × 6 q3d): 19.10 ± 0.73 g
Body weight of mice (g) 8 day ([1]; 160 mg/kg ig × 6 q3d): 17.33 ± 1.52 g
Body weight of mice (g) 11 day ([1]; 160 mg/kg ig × 6 q3d): 17.15 ± 1.33 g
Body weight of mice (g) 16 day ([1]; 160 mg/kg ig × 6 q3d): 16.43 ± 1.47 g
Body weight of mice (g) 18 day ([1]; 160 mg/kg ig × 6 q3d): 15.73 ± 1.31 g
Animal No. end ([1]; 160 mg/kg ig × 6 q3d): 7/3
TV inhibition rate % T/C ([2]; 120 mg/kg ig × 9 qod): 44.1%
Tumor volume (mm^3) End ([2]; 120 mg/kg ig × 9 qod): 905 ± 403 mm^3
Tumor volume (mm^3) Start ([2]; 120 mg/kg ig × 9 qod): 69.58 ± 11 mm^3
Tumor weight (g) x ± SD ([2]; 120 mg/kg ig × 9 qod): 0.835 ± 0.41 g
Tumor inhibition rate % ([2]; 120 mg/kg ig × 9 qod): 58.0%
TV inhibition rate % T/C ([2]; 160 mg/kg ig × 6 q3d): 45.3%
Tumor volume (mm^3) End ([2]; 160 mg/kg ig × 6 q3d): 904 ± 347 mm^3
Tumor volume (mm^3) Start ([2]; 160 mg/kg ig × 6 q3d): 67.75 ± 25 mm^3
Tumor weight (g) x ± SD ([2]; 160 mg/kg ig × 6 q3d): 0.881 ± 0.467 g
Tumor inhibition rate % ([2]; 160 mg/kg ig × 6 q3d): 55.7%
